Patent US20170042955A1, “Novel Anti-Fungal Composition” (priority 2014, published 2017)

Columns and labels:
[1] = tested on: Phospholipase of C. albicans; experiment: Phospholipase inhibitory activity, spectrophotometric analysis; type: cell-based, Candida albicans; details: Lawsone 100 μg/ml
Method: (§1) C. albicans NCIM 3074 culture was grown in Sabouraud broth at 37° C. for 12 h. The culture was centrifuged at 7000 rpm for 5 mm to pellet the cells. The cell pellet was washed twice with normal saline and centrifuged to collect the pellets. 100 μL of Candida albicans cell suspension was added to proteinase induction medium containing 1% glucose, 3% yeast carbon base and 1% BSA (Bovine Serum Albumin). […] This was added to respective test tubes immediately after the inoculation of culture. The mixture was incubated for 24-48 h at 37° C. in a shaker at 150 rpm. Culture broth was centrifuged at 7000 rpm for 15 min to remove cells. Cells were lysed and cell lysis was used for zymographic studies after protein estimation. Zymogram was performed with 1% casein incorporated in the acrylamide gel to detect the proteinase inhibition activity. The proteinase inhibitory activity was indicated by no cleavage of casein (no band formation) and it can be compared to complete cleavage of casein by proteinases (white band formation) in control groups. […] Subsequently, 1 ml of 60% perchloric acid was added and the final volume was made to 9.1 ml using distilled water to this 0.5 ml of molybdate II reagent and 0.4 ml ANSA reagent mixture was added. The tubes were shaken well and heated in a boiling water bath for 8 mm exactly. The blue color developed was read using spectrophotometer at 680 nm.

[2] = tested on: proteinase of C. albicans NCIM 3074; experiment: Protease inhibitory activity, native gel electrophoresis (casein zymogram); type: cell-based, Candida albicans; details: 100 μg mL-1 Lawsone; 24-48 h at 37° C.; FIG. 6
Method: as §1

[3] = tested on: Candida sp.; details: literature study (13); cited from earlier work
[4] = tested on: C. albicans; experiment: Antifungal activity by modified Kerby-Bauer disc method; type: cell-based, Candida albicans
Method: • Susceptibility disks (5 mm in diameter) were impregnated with 0.5 mg of desired compound(s)/extract dissolved in DMSO, and placed on Sabouraud dextrose agar plates separately inoculated with the C. albicans and C. glabrata. […] Disc containing only DMSO was used as a negative control. • Anticandidal activity against Candida species: • Dose dependent anti-candidal activity was observed up on treatment using Lawsoniainermisextract against tested C. albicans and C. glabrata (Table 1).

O=C1C=C(O)C(=O)c2ccccc21 [Lawsone]
% Inhibition of Phospholipase Enzyme Activity ([1]; compared to Control): 77.78% | Phospholipase Enzyme Activity (O.D) ([1]; read at 680 nm): 0.02 O.D | Zymogram result, casein cleavage [2]: intact Casein (no band/less intense band formation) | Activity on Candida sp. [3]: there isn't appreciable activity | Inhibition of candidal growth ([4]; C. albicans, all three concentrations 50, 100 and 200 μg/ml, FIG. 1): Complete inhibition of candidal growth | zone of inhibition at 50 µg/disc ([4]; Candida albicans): 14 mm | zone of inhibition at 100 µg/disc ([4]; Candida albicans): 16 mm | zone of inhibition at 200 µg/disc ([4]; Candida albicans): 17 mm
